Test results reported in ChEMBL document CHEMBL1817618, “Synthesis and evaluation of dual site inhibitors of 3-deoxy-D-arabino-heptulosonate 7-phosphate synthase” (Bioorg Med Chem Lett, 2011).

Assays:
[1] = target: T1, Phospho-2-dehydro-3-deoxyheptonate aldolase (Escherichia coli, UniProt C3TIE2); test: Inhibition of recombinant Escherichia coli DAH7P synthase
[2] = target: T1, Phospho-2-dehydro-3-deoxyheptonate aldolase; test: Competitive inhibition of recombinant Escherichia coli DAH7P synthase using PEP as substrate by Michaelis-Menten equation analysis using UV-visible spectrophotometry

T1 sequence (C3TIE2 whole entry): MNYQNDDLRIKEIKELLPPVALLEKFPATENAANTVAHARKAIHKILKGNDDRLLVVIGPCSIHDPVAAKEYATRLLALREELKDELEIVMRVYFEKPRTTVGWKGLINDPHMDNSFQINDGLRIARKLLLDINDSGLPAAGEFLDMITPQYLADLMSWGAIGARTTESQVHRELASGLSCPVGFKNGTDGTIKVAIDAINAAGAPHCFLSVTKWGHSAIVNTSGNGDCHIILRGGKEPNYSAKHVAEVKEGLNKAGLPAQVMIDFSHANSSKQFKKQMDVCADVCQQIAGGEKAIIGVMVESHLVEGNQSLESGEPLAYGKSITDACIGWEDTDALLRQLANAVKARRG

Structure (SMILES) | Ki [2] [µM] | Ki [1] [µM]
C=C(CP(=O)(O)O)C(=O)O |  | 270
C/C(=C\P(=O)(O)O)C(=O)O |  | 4.7

Further lines, with some results ahead:

Ki [2] [µM] | Structure (SMILES) | Ki [1] [µM]
3.6 | O=C(O)/C(=C/P(=O)(O)O)CCCCCBr | 
154 | O=C(O)C(=CCCCCOP(=O)(O)O)CP(=O)(O)O (mixture of isomers) | 
5.3 | O=C(O)C(=CP(=O)(O)O)CCCCCOP(=O)(O)O (mixture of isomers) | 
